{"source": "paper PMC11272821", "about": "“Mechanistic safety assessment via multi-omic characterisation of systemic pathway perturbations following in vivo MAT2A inhibition” (Archives of Toxicology, 2024)", "key": {"[1]": {"test": "7-day-rat investigative safety study (in-life, histopathology, clinical chemistry)", "assay_type": "in vivo", "details": "for liver microscopic examination, hepatocyte glycogen stores: 30 mg/kg, compared with vehicles", "method": "All in vivo experimental procedures were conducted in accordance with United Kingdom legislation (Animals (Scientific Procedures) Act, 1986) and were compliant with the ARRIVE guidelines. 8–10 week old male (210–230 g) Crl:WI Han Wistar rats (Charles River Laboratories Ltd, UK) were acclimatised to the facility for 10 days and then randomised to groups based on bodyweight.\nFollowing euthanasia and blood sample collections, animals were necropsied and subjected to gross examination. Samples of liver, brain and heart were collected and fixed in 10% neutral buffered formalin at room temperature for 48 h, followed by routine histology processing (Leica Biosystems) to paraffin embedded wax blocks. Paraffin embedded tissues were cut into […] sections using a microtome (Leica Biosystems) and mounted on glass microscope slides. Tissue sections were stained with hematoxylin and eosin and coverslipped. Stained slides were digitally scanned using an AT2 Scanscope pathology slide scanner (Leica Biosystems) and whole slide images were reviewed by a veterinary pathologist.\nA whole blood sample (2.0 mL) was collected into lithium heparin from the caudal vena cava under isoflurane/oxygen anaesthesia immediately prior to euthanasia. Blood samples were centrifuged for 10 min at 4 °C to separate the plasma fraction. Plasma samples were divided into 0.5 mL aliquots and frozen at […] for storage prior to chemistry analysis. Plasma chemistry analysis was performed by Charles River Laboratories (Edinburgh, Scotland) following standard procedures."}, "A1 adenosine receptor": {"biological_target": "T1, A1 adenosine receptor (Homo sapiens, UniProt P30542)", "T1 construct": "purchased Eurofins", "T1 sequence (P30542 whole entry)": "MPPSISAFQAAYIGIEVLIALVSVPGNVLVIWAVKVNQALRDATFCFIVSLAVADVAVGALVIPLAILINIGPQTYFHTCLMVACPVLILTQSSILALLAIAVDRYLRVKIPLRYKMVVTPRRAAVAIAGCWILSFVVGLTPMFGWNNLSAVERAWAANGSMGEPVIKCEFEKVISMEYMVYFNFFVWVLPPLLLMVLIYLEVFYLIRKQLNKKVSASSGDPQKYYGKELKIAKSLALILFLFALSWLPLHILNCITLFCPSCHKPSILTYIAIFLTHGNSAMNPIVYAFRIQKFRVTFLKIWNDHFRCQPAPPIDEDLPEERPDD", "test": "Radioligand binding assay", "method": "(§1) Secondary pharmacology assays were performed at Eurofins using standard experimental techniques against a total of 86 targets across a broad pharmacological space. Assay details along with experimental protocols are described at https://www.eurofinsdiscoveryservices.com. […] Assays measuring substrate turnover or phosphorylation by isolated proteins were used for kinase and enzyme targets, allowing direct determination of the mode of action of the compounds. […] Assays were run in eight points concentration response mode with half log dilutions and IC50, EC50 or Ki (Cheng and Prusoff [1973]) values determined."}, "[2]": {"biological_target": "T2, CCK1 cholecystokinin receptor (Homo sapiens, UniProt P32238)", "T2 construct": "Eurofins", "T2 sequence (P32238 whole entry)": "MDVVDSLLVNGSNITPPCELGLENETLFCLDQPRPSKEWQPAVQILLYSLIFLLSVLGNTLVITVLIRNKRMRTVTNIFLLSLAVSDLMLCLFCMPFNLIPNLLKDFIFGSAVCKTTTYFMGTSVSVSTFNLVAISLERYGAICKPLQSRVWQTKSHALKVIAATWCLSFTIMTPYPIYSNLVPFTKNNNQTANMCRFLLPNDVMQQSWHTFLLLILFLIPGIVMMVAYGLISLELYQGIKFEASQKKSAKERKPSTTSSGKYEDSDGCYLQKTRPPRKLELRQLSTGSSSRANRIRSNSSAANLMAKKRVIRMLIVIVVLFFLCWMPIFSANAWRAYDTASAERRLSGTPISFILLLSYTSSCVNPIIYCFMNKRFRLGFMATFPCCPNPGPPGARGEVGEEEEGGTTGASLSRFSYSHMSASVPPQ", "test": "Radioligand binding assay", "method": "as §1"}, "5-HT4 receptor": {"biological_target": "T3, 5-HT4 receptor (Homo sapiens, UniProt Q13639)", "T3 construct": "Eurofins", "test": "Radioligand binding assay", "method": "as §1"}, "NK1 neurokinin receptor": {"biological_target": "T4, NK1 neurokinin receptor (Homo sapiens, UniProt P25103)", "T4 construct": "Eurofins", "T4 sequence (P25103 whole entry)": "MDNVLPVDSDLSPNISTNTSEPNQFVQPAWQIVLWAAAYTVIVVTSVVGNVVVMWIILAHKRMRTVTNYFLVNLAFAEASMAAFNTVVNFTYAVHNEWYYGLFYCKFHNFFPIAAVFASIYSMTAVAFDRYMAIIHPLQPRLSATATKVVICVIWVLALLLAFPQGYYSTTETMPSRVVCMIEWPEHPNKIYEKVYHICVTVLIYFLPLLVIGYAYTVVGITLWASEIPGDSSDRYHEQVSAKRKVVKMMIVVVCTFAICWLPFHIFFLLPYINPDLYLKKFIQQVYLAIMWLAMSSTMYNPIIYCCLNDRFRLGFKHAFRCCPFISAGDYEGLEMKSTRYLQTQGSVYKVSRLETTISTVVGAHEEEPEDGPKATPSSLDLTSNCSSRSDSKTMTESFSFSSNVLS", "test": "Radioligand binding assay", "method": "as §1"}, "[3]": {"biological_target": "T5, SST4 somatostatin receptor (Homo sapiens, UniProt P31391)", "T5 construct": "Eurofins", "test": "Radioligand binding assay", "method": "as §1"}, "[4]": {"biological_target": "T6, Noradrenaline Transporter (NET) (Homo sapiens, UniProt P23975)", "T6 construct": "Eurofins", "T6 sequence (P23975 whole entry)": "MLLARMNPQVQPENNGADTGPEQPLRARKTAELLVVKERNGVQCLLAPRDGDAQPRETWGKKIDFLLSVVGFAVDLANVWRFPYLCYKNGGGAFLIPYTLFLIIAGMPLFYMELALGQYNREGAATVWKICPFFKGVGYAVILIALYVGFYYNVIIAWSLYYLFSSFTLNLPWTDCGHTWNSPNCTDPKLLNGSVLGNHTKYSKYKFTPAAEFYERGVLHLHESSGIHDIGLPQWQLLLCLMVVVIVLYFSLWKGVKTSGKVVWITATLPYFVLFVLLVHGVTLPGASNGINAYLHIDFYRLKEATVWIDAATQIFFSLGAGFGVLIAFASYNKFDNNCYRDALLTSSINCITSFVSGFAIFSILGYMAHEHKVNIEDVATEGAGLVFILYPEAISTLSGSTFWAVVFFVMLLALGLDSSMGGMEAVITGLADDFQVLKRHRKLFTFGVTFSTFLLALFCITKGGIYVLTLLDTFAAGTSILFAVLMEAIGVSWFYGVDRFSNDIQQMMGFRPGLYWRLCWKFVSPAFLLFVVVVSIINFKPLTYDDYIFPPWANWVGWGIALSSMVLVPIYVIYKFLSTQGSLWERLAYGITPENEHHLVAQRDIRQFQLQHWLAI", "test": "Radioligand binding assay", "method": "as §1"}, "α1A adrenoceptor": {"biological_target": "T7, α1A adrenoceptor (Homo sapiens, UniProt P35348)", "T7 construct": "Eurofins", "T7 sequence (P35348 whole entry)": "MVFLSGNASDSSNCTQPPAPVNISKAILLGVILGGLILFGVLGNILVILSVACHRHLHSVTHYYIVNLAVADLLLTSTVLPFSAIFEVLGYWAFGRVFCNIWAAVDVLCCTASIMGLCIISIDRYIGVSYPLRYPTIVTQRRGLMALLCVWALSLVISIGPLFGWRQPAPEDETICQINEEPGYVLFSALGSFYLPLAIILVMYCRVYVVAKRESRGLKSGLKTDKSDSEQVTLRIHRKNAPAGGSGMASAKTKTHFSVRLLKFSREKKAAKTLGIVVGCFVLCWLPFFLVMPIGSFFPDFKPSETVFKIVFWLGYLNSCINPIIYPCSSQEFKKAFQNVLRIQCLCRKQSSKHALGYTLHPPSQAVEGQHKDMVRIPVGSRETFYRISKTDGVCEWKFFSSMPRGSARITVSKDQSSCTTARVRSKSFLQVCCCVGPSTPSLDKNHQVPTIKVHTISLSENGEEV", "test": "Radioligand binding assay", "method": "as §1"}, "5-HT7 receptor": {"biological_target": "T8, 5-HT7 receptor (Homo sapiens, UniProt P34969)", "T8 construct": "Eurofins", "test": "Radioligand binding assay", "method": "as §1"}, "M2 muscarinic receptor": {"biological_target": "T9, M2 muscarinic receptor (Homo sapiens, UniProt P08172)", "T9 construct": "Eurofins", "T9 sequence (P08172 1-466)": "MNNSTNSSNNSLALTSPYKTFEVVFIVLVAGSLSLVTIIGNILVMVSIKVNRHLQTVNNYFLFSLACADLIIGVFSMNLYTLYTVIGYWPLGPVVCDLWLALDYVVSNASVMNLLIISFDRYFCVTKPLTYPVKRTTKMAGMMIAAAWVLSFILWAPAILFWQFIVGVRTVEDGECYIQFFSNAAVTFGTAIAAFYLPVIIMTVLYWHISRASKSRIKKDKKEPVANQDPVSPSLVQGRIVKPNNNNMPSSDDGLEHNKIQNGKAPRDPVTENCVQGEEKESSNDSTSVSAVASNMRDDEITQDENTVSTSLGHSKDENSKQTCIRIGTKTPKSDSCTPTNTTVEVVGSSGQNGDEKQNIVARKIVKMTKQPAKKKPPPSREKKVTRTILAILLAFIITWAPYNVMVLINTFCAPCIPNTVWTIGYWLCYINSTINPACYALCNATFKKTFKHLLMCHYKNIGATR", "test": "Radioligand binding assay", "method": "as §1"}, "[5]": {"biological_target": "T10, Glucocorticoid Receptor NR3C1 (Homo sapiens, UniProt P04150)", "T10 construct": "Eurofins", "T10 sequence (P04150 whole entry)": "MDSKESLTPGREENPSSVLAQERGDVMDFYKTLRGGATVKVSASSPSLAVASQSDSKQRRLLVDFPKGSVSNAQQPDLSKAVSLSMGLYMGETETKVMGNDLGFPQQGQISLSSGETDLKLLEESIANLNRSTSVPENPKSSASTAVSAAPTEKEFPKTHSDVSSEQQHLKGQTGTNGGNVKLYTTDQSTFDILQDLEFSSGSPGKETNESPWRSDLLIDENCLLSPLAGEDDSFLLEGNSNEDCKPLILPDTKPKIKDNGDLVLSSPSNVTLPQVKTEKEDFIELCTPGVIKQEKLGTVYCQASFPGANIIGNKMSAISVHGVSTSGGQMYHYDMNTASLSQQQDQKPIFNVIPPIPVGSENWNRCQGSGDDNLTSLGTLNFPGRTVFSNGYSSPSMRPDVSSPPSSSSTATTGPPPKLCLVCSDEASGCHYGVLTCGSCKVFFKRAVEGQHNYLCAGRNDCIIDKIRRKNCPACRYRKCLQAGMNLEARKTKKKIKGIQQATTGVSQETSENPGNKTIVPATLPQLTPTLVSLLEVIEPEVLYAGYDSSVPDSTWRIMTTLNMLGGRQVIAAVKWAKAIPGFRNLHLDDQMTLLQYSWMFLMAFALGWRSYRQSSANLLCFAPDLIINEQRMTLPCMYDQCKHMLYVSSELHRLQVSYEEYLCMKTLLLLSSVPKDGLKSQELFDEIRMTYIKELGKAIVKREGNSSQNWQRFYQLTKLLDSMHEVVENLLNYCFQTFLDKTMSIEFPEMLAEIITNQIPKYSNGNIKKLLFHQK", "test": "Radioligand binding assay", "method": "as §1"}, "δ opioid Receptor": {"biological_target": "T11, δ opioid Receptor (Homo sapiens, UniProt P41143)", "T11 construct": "Eurofins", "test": "Radioligand binding assay", "method": "as §1"}, "[6]": {"biological_target": "T12, Peroxisome proliferator-activated receptor-γ (Homo sapiens, UniProt P37231)", "T12 construct": "Eurofins", "test": "Radioligand binding assay", "method": "as §1"}, "M1 muscarinic receptor": {"biological_target": "T13, M1 muscarinic receptor (Homo sapiens, UniProt P11229)", "T13 construct": "Eurofins", "T13 sequence (P11229 whole entry)": "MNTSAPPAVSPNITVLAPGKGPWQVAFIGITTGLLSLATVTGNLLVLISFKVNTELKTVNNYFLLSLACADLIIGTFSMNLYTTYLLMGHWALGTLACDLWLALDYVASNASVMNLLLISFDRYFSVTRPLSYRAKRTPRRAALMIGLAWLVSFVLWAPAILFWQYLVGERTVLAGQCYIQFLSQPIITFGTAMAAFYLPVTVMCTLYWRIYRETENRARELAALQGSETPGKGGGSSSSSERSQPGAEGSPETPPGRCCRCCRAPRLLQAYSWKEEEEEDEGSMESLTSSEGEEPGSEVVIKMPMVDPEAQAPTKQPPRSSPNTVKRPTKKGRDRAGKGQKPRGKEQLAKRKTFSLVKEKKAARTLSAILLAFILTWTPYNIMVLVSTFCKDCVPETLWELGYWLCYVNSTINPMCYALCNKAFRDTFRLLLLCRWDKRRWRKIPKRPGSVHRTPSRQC", "test": "Radioligand binding assay", "method": "as §1"}, "D1 dopamine receptor": {"biological_target": "T14, D1 dopamine receptor (Homo sapiens, UniProt P21728)", "T14 construct": "Eurofins", "T14 sequence (P21728 whole entry)": "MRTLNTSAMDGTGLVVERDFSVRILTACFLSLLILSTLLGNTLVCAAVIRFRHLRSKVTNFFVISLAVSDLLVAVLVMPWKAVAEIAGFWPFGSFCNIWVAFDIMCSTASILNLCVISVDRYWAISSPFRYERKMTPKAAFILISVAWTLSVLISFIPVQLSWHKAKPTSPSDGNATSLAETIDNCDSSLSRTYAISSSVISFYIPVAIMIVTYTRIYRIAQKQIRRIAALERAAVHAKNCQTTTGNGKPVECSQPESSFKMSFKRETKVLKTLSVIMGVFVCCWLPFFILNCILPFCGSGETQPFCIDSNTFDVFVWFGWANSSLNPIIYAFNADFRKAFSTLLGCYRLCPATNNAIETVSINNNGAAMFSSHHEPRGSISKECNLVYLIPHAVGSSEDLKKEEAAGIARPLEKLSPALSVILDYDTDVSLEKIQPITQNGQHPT", "test": "Radioligand binding assay", "method": "as §1"}, "[7]": {"biological_target": "T15, Dopamine transporter (DAT) (Homo sapiens, UniProt Q01959)", "T15 construct": "Eurofins", "test": "Radioligand binding assay", "method": "as §1"}, "A2A adenosine receptor": {"biological_target": "T16, A2A adenosine receptor (Homo sapiens, UniProt P29274)", "T16 construct": "Eurofins", "test": "Radioligand binding assay", "method": "as §1"}, "CB1 cannabinoid receptor": {"biological_target": "T17, CB1 cannabinoid receptor (Homo sapiens, UniProt P21554)", "T17 construct": "purchased Eurofins", "T17 sequence (P21554 whole entry)": "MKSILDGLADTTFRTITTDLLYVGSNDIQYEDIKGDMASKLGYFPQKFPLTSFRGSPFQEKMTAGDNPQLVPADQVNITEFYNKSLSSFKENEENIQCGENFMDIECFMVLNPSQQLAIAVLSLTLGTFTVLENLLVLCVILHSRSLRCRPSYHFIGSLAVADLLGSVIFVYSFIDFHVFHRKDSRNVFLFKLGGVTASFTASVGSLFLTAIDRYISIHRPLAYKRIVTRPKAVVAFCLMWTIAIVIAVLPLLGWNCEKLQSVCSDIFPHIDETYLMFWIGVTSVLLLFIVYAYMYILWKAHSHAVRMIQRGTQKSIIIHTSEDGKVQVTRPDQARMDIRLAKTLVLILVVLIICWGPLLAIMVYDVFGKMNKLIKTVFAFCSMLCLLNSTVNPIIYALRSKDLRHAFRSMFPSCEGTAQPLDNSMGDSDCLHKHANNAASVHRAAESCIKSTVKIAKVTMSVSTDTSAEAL", "test": "Radioligand binding assay", "method": "as §1"}, "κ opioid receptor": {"biological_target": "T18, κ opioid receptor (Homo sapiens, UniProt P41145)", "T18 construct": "Eurofins", "T18 sequence (P41145 whole entry)": "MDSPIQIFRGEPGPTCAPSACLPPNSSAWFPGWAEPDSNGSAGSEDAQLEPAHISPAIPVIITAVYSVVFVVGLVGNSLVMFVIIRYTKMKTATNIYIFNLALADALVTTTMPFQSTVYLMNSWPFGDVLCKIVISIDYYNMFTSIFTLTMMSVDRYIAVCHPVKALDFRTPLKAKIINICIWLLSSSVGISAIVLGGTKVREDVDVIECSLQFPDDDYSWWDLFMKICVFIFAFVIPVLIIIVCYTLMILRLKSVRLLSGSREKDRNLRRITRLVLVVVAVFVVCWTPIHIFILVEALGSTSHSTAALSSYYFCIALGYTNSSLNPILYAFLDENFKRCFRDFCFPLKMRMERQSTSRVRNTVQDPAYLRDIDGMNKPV", "test": "Radioligand binding assay", "method": "as §1"}, "5-HT2B receptor": {"biological_target": "T19, 5-HT2B receptor (Homo sapiens, UniProt P41595)", "T19 construct": "Eurofins", "test": "Radioligand binding assay", "method": "as §1"}, "AT1 angiotensin receptor": {"biological_target": "T20, AT1 angiotensin receptor (Homo sapiens, UniProt P30556)", "T20 construct": "Eurofins", "test": "Radioligand binding assay", "method": "as §1"}, "MTAP KO HCT116 xenograft": {"system": "MTAP KO HCT116 xenograft", "design": "method as in Atkinson et al. [2024]", "details": "ref Atkinson et al. [2024], cited from earlier work"}}}
{"smiles": "Cn1cc2cc(-c3cc4[nH]nc(C5CC5)c4n(-c4ccc(OC(F)F)cc4)c3=O)ccc2n1", "note": "[AZ’9567]", "values": [{"measurement": "liver microscopic examination, hepatocyte glycogen stores", "setting": "[1]; listed as AZMAT2Ai", "result": "decrease in glycogen stores"}, {"measurement": "liver microscopic examination, hepatocyte glycogen stores", "setting": "[1]; listed as MAT2Ai", "result": "minimal decrease in hepatocyte glycogen stores"}, {"measurement": "clinical observations during the in-life phase", "setting": "[1]; 3, 10, 30 mg/kg BID, 7 days", "result": "no clinical observations"}, {"measurement": "liver steatosis, histopathology", "setting": "[1]; 8-days study", "result": "no histopathological evidence of liver steatosis"}, {"measurement": "food consumption and body weight", "setting": "[1]; all dose groups", "result": "significant drop"}, {"measurement": "liver pathology", "setting": "[1]; any dose group", "result": "No significant abnormalities detected"}, {"measurement": "bone marrow histopathology", "setting": "[1]; data not shown", "result": "bone marrow toxicity affecting mostly the erythroid compartment"}, {"measurement": "pancreas histopathology", "setting": "[1]; loss of both exocrine and endocrine parenchyma, data not shown", "result": "dose-dependent pancreatic necrosis"}, {"measurement": "histopathological examination of the heart or brain", "setting": "[1]; rat, in vivo", "result": "No microscopic abnormalities"}, {"measurement": "plasma chemistry: markers of liver injury or cholesterol levels", "setting": "[1]; vehicle vs treated animals", "result": "no differences"}, {"measurement": "Ki", "setting": "A1 adenosine receptor", "result": 2.6, "unit": "µM"}, {"measurement": "Ki", "setting": "[2]", "result": 25.3, "unit": "µM"}, {"measurement": "Ki", "setting": "5-HT4 receptor", "result": 10.3, "unit": "µM"}, {"measurement": "Ki", "setting": "NK1 neurokinin receptor", "result": 10.2, "unit": "µM"}, {"measurement": "Ki", "setting": "[3]", "result": 50.6, "unit": "µM"}, {"measurement": "Ki", "setting": "[4]", "result": 33.3, "unit": "µM"}, {"measurement": "Ki", "setting": "α1A adrenoceptor", "result": 12.7, "unit": "µM"}, {"measurement": "Ki", "setting": "5-HT7 receptor", "result": 2.9, "unit": "µM"}, {"measurement": "Ki", "setting": "M2 muscarinic receptor", "result": 1.8, "unit": "µM"}, {"measurement": "Ki", "setting": "[5]", "result": 24.8, "unit": "µM"}, {"measurement": "Ki", "setting": "δ opioid Receptor", "result": 12.8, "unit": "µM"}, {"measurement": "Ki", "setting": "[6]", "result": 33.3, "unit": "µM"}, {"measurement": "Ki", "setting": "M1 muscarinic receptor", "result": 69.7, "unit": "µM"}, {"measurement": "Ki", "setting": "D1 dopamine receptor", "result": 35, "unit": "µM"}, {"measurement": "Ki", "setting": "[7]", "result": 22.6, "unit": "µM"}, {"measurement": "Ki", "setting": "A2A adenosine receptor", "result": 2.2, "unit": "µM"}, {"measurement": "Ki", "setting": "CB1 cannabinoid receptor", "result": 30.3, "unit": "µM"}, {"measurement": "Ki", "setting": "κ opioid receptor", "result": 6, "unit": "µM"}, {"measurement": "Ki", "setting": "5-HT2B receptor", "result": 32.4, "unit": "µM"}, {"measurement": "Ki", "setting": "AT1 angiotensin receptor", "result": 12.7, "unit": "µM"}, {"measurement": "depletion of SAM", "setting": "MTAP KO HCT116 xenograft; 20 mg/kg BID, day 24", "result": "> 90", "unit": "%"}, {"measurement": "depletion of SDMA", "setting": "MTAP KO HCT116 xenograft; 20 mg/kg BID, day 24", "result": "> 90", "unit": "%"}, {"measurement": "anti-tumour response", "setting": "MTAP KO HCT116 xenograft; 20 mg/kg BID", "result": "robust anti-tumour response"}, {"measurement": "anti-tumour and PD modulation (SDMA and SAM)", "setting": "MTAP KO HCT116 xenograft; 3, 10, 30 mg/kg BID", "result": "robust anti-tumour and PD modulation"}]}
